PubChem BioAssay (NCI)
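Tested at 5 concentrations; 48 h exposure; 96-well plates; endpoints linearly interpolated, else capped at highest concentration. GI50 = concentration required for 50% inhibition of growth. The concentration for full growth arrest is given as TGI.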

Legend:
Assay in all cases: growth of human tumour cells (NCI), 48 h
A498 renal = test system: A498 renal
BT-549 breast = test system: BT-549 breast
HCC-2998 colon = test system: HCC-2998 colon
HCT-15 colon = test system: HCT-15 colon
HS 578T breast = test system: HS 578T breast
HT29 colon = test system: HT29 colon
M14 melanoma = test system: M14 melanoma
MALME-3M melanoma = test system: MALME-3M melanoma
NCI-H226 lung = test system: NCI-H226 lung
SK-MEL-5 melanoma = test system: SK-MEL-5 melanoma

| SMILES | TGI (A498 renal) | TGI (BT-549 breast) | TGI (HCC-2998 colon) | TGI (HCT-15 colon) | TGI (HS 578T breast) | TGI (HT29 colon) | TGI (M14 melanoma) | TGI (MALME-3M melanoma) | TGI (NCI-H226 lung) | TGI (SK-MEL-5 melanoma) | GI50 (A498 renal) | GI50 (BT-549 breast) | GI50 (HCC-2998 colon) | GI50 (HCT-15 colon) | GI50 (HS 578T breast) | GI50 (HT29 colon) | GI50 (M14 melanoma) | GI50 (MALME-3M melanoma) | GI50 (NCI-H226 lung) | GI50 (SK-MEL-5 melanoma) |
| --- | --- | --- | --- | --- | --- | --- | --- | --- | --- | --- | --- | --- | --- | --- | --- | --- | --- | --- | --- | --- |
| NS(=O)(=O)c1ccc(N=Nc2c(O)c(C(=O)O)cc3ccccc23)cc1 | > 100 µM | > 100 µM | > 100 µM | > 100 µM | > 100 µM | > 100 µM | > 100 µM | 65.9 µM | > 100 µM | > 100 µM | – | – | – | – | – | – | – | – | – | – |
| O=c1c(F)cn(Cc2ccc(C34CC5CC(CC(C5)C3)C4)c(O)c2)c(=O)n1Cc1ccc(C23CC4CC(CC(C4)C2)C3)c(O)c1 | 27.5 µM | 31.3 µM | 33.2 µM | 26.5 µM | 56.4 µM | 29.9 µM | 45.3 µM | 29.2 µM | 26.1 µM | 27 µM | 14.2 µM | 13.1 µM | 17.8 µM | 13.6 µM | 11.5 µM | 13.9 µM | 18.4 µM | 14.8 µM | 12.9 µM | 13.9 µM |
| CCC[CH2][Sn]([CH2]CCC)([O]C(=O)c1ccc(OC)c(OC)c1OC)[O][Sn]([CH2]CCC)([CH2]CCC)[O]C(=O)c1ccc(OC)c(OC)c1OC | 1.25 µM | 1.15 µM | 1.5 µM | 0.526 µM | 1.81 µM | 2.31 µM | 0.583 µM | 0.757 µM | 0.89 µM | 1.81 µM | 0.284 µM | 0.241 µM | 0.341 µM | 0.175 µM | 0.282 µM | 0.831 µM | 0.267 µM | 0.168 µM | 0.33 µM | 0.604 µM |
| Clc1cc2c(c(CSc3nc4ccccc4n4cccc34)c1)OCOC2 | > 100 µM | > 100 µM | > 100 µM | > 100 µM | 45 µM | > 100 µM | > 100 µM | > 100 µM | > 100 µM | > 100 µM | 22.6 µM | 78.1 µM | > 100 µM | 2.7 µM | 5.61 µM | > 100 µM | > 100 µM | 29.6 µM | 14.3 µM | > 100 µM |
| CCN(CC)CCNc1nc(N)c(C#N)c(C#N)c1C#N | > 10 µM | > 10 µM | > 10 µM | > 10 µM | > 10 µM | > 10 µM | > 10 µM | > 10 µM | > 10 µM | > 10 µM | – | – | – | – | – | – | – | – | – | – |
| O=c1oc2ccc(-c3ccc(F)cc3F)cc2c(=O)n1-c1cccc(C(F)(F)F)c1 | 0.888 µM | 3.7 µM | 7.94 µM | 23.4 µM | 7.28 µM | 11.7 µM | 4.21 µM | 4.74 µM | 5.19 µM | 1.71 µM | 0.21 µM | 0.605 µM | 2.64 µM | 1.61 µM | 1.3 µM | 3.24 µM | 0.525 µM | 0.785 µM | 1.43 µM | 0.44 µM |
| CCN1CCN(c2cc(C)c3cc(NC(=O)c4ccc(OC)c(OC)c4)ccc3n2)CC1 | 41.1 µM | > 100 µM | > 100 µM | > 100 µM | > 74.1 µM | > 100 µM | > 100 µM | 31.3 µM | > 100 µM | > 42.3 µM | 16.4 µM | > 33 µM | > 57.3 µM | 3.02 µM | 8.55 µM | 1.31 µM | 8.88 µM | 13.3 µM | > 54.7 µM | 1.17 µM |
| CC(C)(/C=C(\C#N)C(=O)N1CCC[C@@H](n2nc(-c3ccc(Oc4ccccc4)cc3F)c3c(N)ncnc32)C1)N1CCN(C2COC2)CC1 | 6.25 µM | 18.6 µM | 31.5 µM | 21 µM | 23.8 µM | 23.6 µM | 18.8 µM | 19.5 µM | 21.1 µM | 13.9 µM | 1.78 µM | 5.42 µM | 15.4 µM | 6.11 µM | 4.67 µM | 4.69 µM | 4.82 µM | 6.07 µM | 4.3 µM | 3.96 µM |
| COc1cc(N=Nc2ccc(O)c3ncccc23)c2ncccc2c1 | 93.5 µM | > 100 µM | > 100 µM | > 100 µM | > 100 µM | > 100 µM | > 100 µM | 33.7 µM | > 100 µM | 13.3 µM | 24.2 µM | 4.31 µM | 3.65 µM | 0.923 µM | 4.67 µM | 6.65 µM | 2.66 µM | 4.03 µM | 6.07 µM | 2.09 µM |
| CN(C)CC[C@H](CSc1ccccc1)Nc1ccc(S(=O)(=O)NC(=O)c2ccc(N3CCN(Cc4ccccc4-c4ccc(Cl)cc4)CC3)cc2)cc1[N+](=O)[O-] | 0.818 µM | > 100 µM | 2.01 µM | > 100 µM | > 100 µM | 5.02 µM | 29.8 µM | 36.3 µM | 17.4 µM | 3.23 µM | 0.0971 µM | 17.3 µM | 0.457 µM | 5.09 µM | 6.87 µM | 2.17 µM | 4.17 µM | 3.11 µM | 4.59 µM | 1.56 µM |
| NC(N)=N/N=C/c1c(Cl)cccc1Cl | 36.9 µM | 44.9 µM | 28.6 µM | > 100 µM | 78 µM | 43.4 µM | – | 33.5 µM | > 100 µM | 27.7 µM | 3.98 µM | 16 µM | 14.8 µM | 26.1 µM | 18 µM | 17 µM | – | 16.2 µM | 24.1 µM | 14.6 µM |
| Cc1nc(Nc2cccnc2)sc1C(=O)/C=C/c1ccc(F)cc1 | 42.7 µM | 8.87 µM | 15.5 µM | 10.2 µM | > 100 µM | 10.1 µM | 12.9 µM | 40 µM | – | 13.4 µM | 7.61 µM | 2.83 µM | 4.09 µM | 2.14 µM | 4.05 µM | 2.76 µM | 3.02 µM | 5.55 µM | – | 3.64 µM |
| COc1cc(C(=O)N2CCN(C(=O)c3cc(OC)c(OC)c(OC)c3)C2=S)cc(OC)c1OC | 33 µM | 34.1 µM | 40 µM | 47.4 µM | > 100 µM | 53.2 µM | 34 µM | 27 µM | 39.1 µM | – | 17.7 µM | 17.4 µM | 19 µM | 20.2 µM | 24.7 µM | 22.7 µM | 16.8 µM | 13.4 µM | 19.5 µM | – |
